Where two headings read alike, the source gives them in different places.
Experiments:
Assay type in all cases: in vivo
[1] = test system: waterhemp (common waterhemp, Amaranthus rudis); experiment: Test F pre-/postemergence plant response; conditions: Amaranthus tuberculatus, scale 0 to 100, read-out: Plant response rating, Waterhemp
How it was run: (§1)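 Herbicidal effect judged by eye against controls, scored 0–100 (complete control = 100). Applications: pre-emergence onto seeded silt loam, post-emergence onto 2–18 cm seedlings; greenhouse, 14–21 days.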

[2] = test system: morningglory (Ipomoea coccinea); experiment: Test F pre-/postemergence plant response; conditions: Ipomoea, pre-emergence, scale 0 to 100, read-out: Plant response rating, Morningglory
How it was run: as §1

[3] = test system: green foxtail (Setaria viridis); experiment: Test F pre-/postemergence plant response; conditions: Setaria viridis, pre-emergence, Preemergence, scale 0 to 100, read-out: Plant response rating, Foxtail, Green
How it was run: as §1

[4] = test system: dayflower (Virginia (VA) dayflower, Commelina virginica); experiment: Test F pre-/postemergence plant response; conditions: Commelina virginica, scale 0 to 100, read-out: Plant response rating, Dayflower, VA
How it was run: as §1

[5] = test system: lambsquarters (Chenopodium album); experiment: Test F pre-/postemergence plant response; conditions: Chenopodium album, pre-emergence, Preemergence, scale 0 to 100, read-out: Plant response rating, Lambsquarters
How it was run: as §1

[6] = test system: sandbur (southern sandbur, Cenchrus echinatus); experiment: Test F pre-/postemergence plant response; conditions: Cenchrus echinatus, scale 0 to 100, read-out: Plant response rating, Sandbur
How it was run: as §1

[7] = test system: palmer pigweed (Amaranthus palmeri); experiment: Test F pre-/postemergence plant response; conditions: Amaranthus palmeri, scale 0 to 100, read-out: Plant response rating, Pigweed, Palmer
How it was run: as §1

[8] = test system: giant foxtail (Setaria faberii); experiment: Test F pre-/postemergence plant response; conditions: Setaria faberi, pre-emergence, scale 0 to 100, read-out: Plant response rating, Foxtail, Giant
How it was run: as §1

[9] = test system: arrowleaf sida (Sida rhombifolia); experiment: Test F pre-/postemergence plant response; conditions: Sida rhombifolia, scale 0 to 100, read-out: Plant response rating, Arrowleaf Sida
How it was run: as §1

[10] = test system: johnsongrass (Sorghum halepense); experiment: Test F pre-/postemergence plant response; conditions: Sorghum halepense, pre-emergence, scale 0 to 100, read-out: Plant response rating, Johnsongrass
How it was run: as §1

[11] = test system: barnyardgrass (Echinochloa crus-galli); experiment: Test F pre-/postemergence plant response; conditions: Echinochloa crus-galli, scale 0 to 100, read-out: Plant response rating, Barnyardgrass
How it was run: as §1

rice (Oryza sativa) = experiment: Test D flooded paddy test plant response; conditions: Flood (flooded paddy test), visual rating on scale 0 to 100 (0 no effect, 100 complete control), 13 to 15 days
How it was run: (§2)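 Plants at 2-leaf stage in pots flooded 3 cm above soil; compounds applied directly into paddy water, depth kept throughout. After 13-15 days in greenhouse, visual rating against controls on 0-100 scale (100 = complete control).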

[12] = test system: small-flower umbrella sedge (Cyperus difformis); experiment: Test D flooded paddy test plant response; conditions: Flood (flooded paddy test), visual rating on scale 0 to 100 (0 no effect, 100 complete control), 13 to 15 days
How it was run: as §2

[13] = test system: ducksalad (Heteranthera limosa); experiment: Test D flooded paddy test plant response; conditions: Flood (flooded paddy test), visual rating on scale 0 to 100 (0 no effect, 100 complete control), 13 to 15 days
How it was run: as §2

[14] = test system: barnyardgrass (Echinochloa crus-galli); experiment: Test D flooded paddy test plant response; conditions: Flood (flooded paddy test), visual rating on scale 0 to 100 (0 no effect, 100 complete control), 13 to 15 days
How it was run: as §2

[15] = post-emergence, 16 g ai/ha Postemergence
[16] = post-emergence, 31 g ai/ha Postemergence
[17] = post-emergence, 62 g ai/ha Postemergence
[18] = post-emergence, 125 g ai/ha Postemergence
[19] = pre-emergence, 16 g ai/ha Preemergence
[20] = pre-emergence, 31 g ai/ha Preemergence
[21] = pre-emergence, 125 g ai/ha Preemergence
[22] = pre-emergence, 62 g ai/ha Preemergence

Fc1cccc(Oc2ncc(Br)cn2)c1-c1cc(C(F)F)no1 [Compound 145, 5-bromo-2-[2-[3-(difluoromethyl)-5-isoxazolyl]-3-fluorophenoxy]pyrimidine]
95: Plant response rating, Ducksalad ([13]; 125 g ai/ha) | Plant response rating, Ducksalad ([13]; 250 g ai/ha)
0: Plant response rating, Rice (rice (Oryza sativa); 31 g ai/ha) | Plant response rating, Barnyardgrass ([14]; 31 g ai/ha) | Plant response rating, Barnyardgrass ([14]; 62 g ai/ha) | Plant response rating, Barnyardgrass ([14]; 125 g ai/ha)
50%: pest or weed control at 16 g/ha [4, 15] | pest or weed control at 62 g/ha [11, 17]
35: Plant response rating, Rice (rice (Oryza sativa); 250 g ai/ha) | Plant response rating, Barnyardgrass ([14]; 250 g ai/ha)
0%: pest or weed control at 16 g/ha ([2]; 16 g ai/ha Preemergence) | pest or weed control at 16 g/ha [4, 19] | pest or weed control at 31 g/ha [4, 20] | pest or weed control at 16 g/ha [6, 19] | pest or weed control at 16 g/ha ([8]; 16 g ai/ha Preemergence) | pest or weed control at 16 g/ha ([10]; 16 g ai/ha Preemergence) | pest or weed control at 16 g/ha [11, 19]
15: Plant response rating, Rice (rice (Oryza sativa); 62 g ai/ha) | Plant response rating, Rice (rice (Oryza sativa); 125 g ai/ha)
35%: pest or weed control at 125 g/ha ([2]; 125 g ai/ha Preemergence) | pest or weed control at 62 g/ha [4, 22] | pest or weed control at 31 g/ha [6, 20]
65%: pest or weed control at 31 g/ha ([8]; 31 g ai/ha Preemergence) | pest or weed control at 16 g/ha [9, 19]
75%: pest or weed control at 62 g/ha [4, 17] | pest or weed control at 125 g/ha [11, 21]
80: Plant response rating, Ducksalad ([13]; 31 g ai/ha)
85: Plant response rating, Ducksalad ([13]; 62 g ai/ha)
90: Plant response rating, Sedge, Umbrella ([12]; 125 g ai/ha) | Plant response rating, Sedge, Umbrella ([12]; 250 g ai/ha)
40%: pest or weed control at 31 g/ha ([3]; 31 g ai/ha)
15%: pest or weed control at 62 g/ha ([2]; Preemergence) | pest or weed control at 125 g/ha [6, 18]
10%: pest or weed control at 31 g/ha ([2]; 31 g ai/ha Preemergence) | pest or weed control at 16 g/ha [11, 15]
60%: pest or weed control at 31 g/ha [4, 16]
60: Plant response rating, Sedge, Umbrella ([12]; 31 g ai/ha)
75: Plant response rating, Sedge, Umbrella ([12]; 62 g ai/ha)
98%: pest or weed control at 31 g/ha [1, 16] | pest or weed control at 62 g/ha [9, 17] | pest or weed control at 62 g/ha [9, 22] | pest or weed control at 125 g/ha [9, 21]
25%: pest or weed control at 62 g/ha ([6]; pre-emergence, Preemergence) | pest or weed control at 31 g/ha [11, 16]
5%: pest or weed control at 16 g/ha ([3]; 16 g ai/ha) | pest or weed control at 16 g/ha [6, 15] | pest or weed control at 31 g/ha [6, 16] | pest or weed control at 62 g/ha [6, 17] | pest or weed control at 31 g/ha [11, 20]
100%: pest or weed control at 62 g/ha [1, 17] | pest or weed control at 125 g/ha [1, 18] | pest or weed control at 16 g/ha [1, 19] | pest or weed control at 31 g/ha [1, 20] | pest or weed control at 125 g/ha [1, 21] | pest or weed control at 62 g/ha ([1]; pre-emergence, Preemergence) | pest or weed control at 125 g/ha ([3]; 125 g ai/ha) | pest or weed control at 62 g/ha [3] | pest or weed control at 16 g/ha ([5]; 16 g ai/ha) | pest or weed control at 31 g/ha ([5]; 31 g ai/ha) | pest or weed control at 125 g/ha ([5]; 125 g ai/ha) | pest or weed control at 62 g/ha [5] | pest or weed control at 31 g/ha [7, 16] | pest or weed control at 62 g/ha [7, 17] | pest or weed control at 125 g/ha [7, 18] | pest or weed control at 16 g/ha [7, 19] | pest or weed control at 31 g/ha [7, 20] | pest or weed control at 125 g/ha [7, 21] | pest or weed control at 62 g/ha ([7]; pre-emergence, Preemergence) | pest or weed control at 125 g/ha ([8]; 125 g ai/ha Preemergence) | pest or weed control at 62 g/ha ([10]; Preemergence)
85%: pest or weed control at 125 g/ha [4, 18] | pest or weed control at 62 g/ha ([8]; 62 g ai/ha Preemergence) | pest or weed control at 125 g/ha ([10]; 125 g ai/ha Preemergence)
20%: pest or weed control at 31 g/ha ([10]; 31 g ai/ha Preemergence)
30%: pest or weed control at 62 g/ha [11, 22]
90%: pest or weed control at 31 g/ha [9, 20]
95%: pest or weed control at 16 g/ha [1, 15] | pest or weed control at 125 g/ha [6, 21] | pest or weed control at 16 g/ha [7, 15] | pest or weed control at 16 g/ha [9, 15] | pest or weed control at 31 g/ha [9, 16] | pest or weed control at 125 g/ha [9, 18]
70%: pest or weed control at 125 g/ha [4, 21] | pest or weed control at 125 g/ha [11, 18]

Reference: patent US10131652B2, “Pyrimidinyloxy benzene derivatives as herbicides” (E. I. DU PONT DE NEMOURS AND COMPANY, priority 2014, dated 2018)
